Experimental data taken from patent US9975885B2, “Broad-spectrum non-covalent coronavirus protease inhibitors” (priority 2016, dated 2018).

Assays:
[1] = system: Ten CoV 3CL^pro's (FIPV-, PEDV-, NL63-, HKU1-, OC43-, SARS-, HKU4-, HKU5-, HKU9-, IBV-3CL^pro); type: biochemical, coronaviruses (α-, β-, γ-CoV)
HKU1-3CL^pro = HKU1-3CL^pro (Human coronavirus HKU1 (isolate N1) (HCoV-HKU1), UniProt P0C6X2); experiment: biochemical
SARS-3CL^pro = SARS-3CL^pro (Severe acute respiratory syndrome coronavirus (SARS-CoV), UniProt P0C6X7); type: biochemical
HKU4-3CL^pro = HKU4-3CL^pro (Bat coronavirus HKU4 (BtCoV) (BtCoV/HKU4/2004), UniProt P0C6W3); type: biochemical
HKU5-3CL^pro = HKU5-3CL^pro (Bat coronavirus HKU5 (BtCoV) (BtCoV/HKU5/2004), UniProt P0C6W4); type: biochemical
Chain of HKU5-3CL^pro (P0C6W4 3339-3644 limits assumed): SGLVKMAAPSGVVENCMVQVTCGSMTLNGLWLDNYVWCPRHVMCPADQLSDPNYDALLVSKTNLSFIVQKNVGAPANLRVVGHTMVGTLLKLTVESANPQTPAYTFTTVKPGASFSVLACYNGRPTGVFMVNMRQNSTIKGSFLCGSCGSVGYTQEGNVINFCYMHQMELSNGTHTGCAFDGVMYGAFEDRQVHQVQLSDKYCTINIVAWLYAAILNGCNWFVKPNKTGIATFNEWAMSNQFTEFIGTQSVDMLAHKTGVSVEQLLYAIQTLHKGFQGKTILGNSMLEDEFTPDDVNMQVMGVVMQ

Chain of HKU4-3CL^pro (P0C6W3 3292-3597 limits assumed): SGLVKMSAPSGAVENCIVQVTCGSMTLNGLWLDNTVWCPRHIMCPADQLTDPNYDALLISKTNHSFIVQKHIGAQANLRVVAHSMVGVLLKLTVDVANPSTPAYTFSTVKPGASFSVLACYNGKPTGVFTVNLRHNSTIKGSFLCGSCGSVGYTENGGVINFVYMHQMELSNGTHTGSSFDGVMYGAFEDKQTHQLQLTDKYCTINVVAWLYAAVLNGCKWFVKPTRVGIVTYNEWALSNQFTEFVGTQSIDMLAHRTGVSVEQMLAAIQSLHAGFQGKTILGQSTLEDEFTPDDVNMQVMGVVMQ
Chain of HKU1-3CL^pro (P0C6X2 3335-3637 limits assumed): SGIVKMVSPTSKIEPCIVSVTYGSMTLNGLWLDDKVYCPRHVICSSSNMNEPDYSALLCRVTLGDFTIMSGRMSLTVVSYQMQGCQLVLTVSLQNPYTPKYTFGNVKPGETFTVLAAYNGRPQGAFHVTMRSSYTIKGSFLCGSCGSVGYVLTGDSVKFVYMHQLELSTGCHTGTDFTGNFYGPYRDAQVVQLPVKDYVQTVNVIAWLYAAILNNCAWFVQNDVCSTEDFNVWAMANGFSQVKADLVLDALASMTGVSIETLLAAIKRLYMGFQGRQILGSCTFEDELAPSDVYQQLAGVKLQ

Row | SMILES | Gini Coefficient [1] | inhibition of any 3CL^pro [1] [%] | also measured
1 | COc1cccc(C(C(=O)NCc2ccccc2)N(C(=O)Cn2nnc3ccccc32)c2ccc(NC(=O)C(C)C)cc2)c1 (centres unmarked) [Compound 14, N-(4-(2-(1H-benzo[d][1,2,3]triazol-1-yl)-N-(2-(benzylamino)-1-(3-methoxyphenyl)-2-oxoethyl)acetamido)phenyl)isobutyramide] | 0.33 | – | Score (performance metric score) [1]: 6.6; IC50 (HKU1-3CL^pro): 1800 ± 300 nM; IC50 HKU1 (HKU1-3CL^pro): low micromolar; IC50 (SARS-3CL^pro): 3500 ± 400 nM; IC50 SARS (SARS-3CL^pro): low micromolar; IC50 (HKU4-3CL^pro): 2400 ± 200 nM; IC50 HKU4 (HKU4-3CL^pro): low micromolar; IC50 (HKU5-3CL^pro): 2200 ± 300 nM; IC50 HKU5 (HKU5-3CL^pro): low micromolar
2 | CC(C)(C)NC(=O)C(c1cccnc1)N(C(=O)c1c[nH]cn1)c1cccc(C(C)(C)C)c1 (centres unmarked) [Compound 71] | 0.30 | – | –
3 | CC(C)(C)NC(=O)C(c1ccsc1)N(C(=O)C1CCN(C(=O)OC(C)(C)C)CC1)c1ccc(NC(=O)C2CC2)cc1 (centres unmarked) [Compound 60, tert-butyl 4-((2-(tert-butylamino)-2-oxo-1-(thiophen-3-yl)ethyl)(4-(cyclopropanecarboxamido)phenyl)carbamoyl)piperidine-1-carboxylate] | 0.60 | ≤ 50 | –
4 | CC(C)C(=O)Nc1ccc(N(C(=O)Cc2coc3ccccc23)C(C(=O)NCc2ccccc2)c2cccc(F)c2)cc1 (centres unmarked) [Compound 20, N-(4-(2-(benzofuran-3-yl)-N-(2-(benzylamino)-1-(3-fluorophenyl)-2-oxoethyl)acetamido)phenyl)isobutyramide] | 0.39 | ≤ 50 | –
5 | CC(C)C(=O)Nc1ccc(N(C(=O)CCc2nc3ccccc3[nH]2)C(C(=O)NCc2ccccc2)c2cccc(F)c2)cc1 (centres unmarked) [Compound 58, 3-(1H-benzo[d]imidazol-2-yl)-N-(2-(benzylamino)-1-(3-fluorophenyl)-2-oxoethyl)-N-(4-isobutyramidophenyl)propanamide] | 0.40 | – | –
6 | COc1cc(N(C(=O)c2c[nH]cn2)C(C(=O)NC(C)(C)C)c2cccnc2)cc(OC)c1OC (centres unmarked) [Compound 69, N-(2-(tert-butylamino)-2-oxo-1-(pyridin-3-yl)ethyl)-N-(3,4,5-trimethoxyphenyl)-1H-imidazole-4-carboxamide] | 0.45 | – | –
7 | CC(C)(C)NC(=O)C(c1ccsc1)N(C(=O)CCc1nc2ccccc2[nH]1)c1ccc(NC(=O)C2CC2)cc1 (centres unmarked) [Compound 62, N-(4-(3-(1H-benzo[d]imidazol-2-yl)-N-(2-(tert-butylamino)-2-oxo-1-(thiophen-3-yl)ethyl)propanamido)phenyl)cyclopropanecarboxamide] | 0.46 | ≤ 50 | –
8 | CC(C)(C)NC(=O)C(c1ccsc1)N(C(=O)Cc1c[nH]c2ccccc12)c1ccc(NC(=O)C2CC2)cc1 (centres unmarked) [Compound 26, N-(4-(N-(2-(tert-butylamino)-2-oxo-1-(thiophen-3-yl)ethyl)-2-(1H-indol-3-yl)acetamido)phenyl)cyclopropanecarboxamide] | 0.46 | ≤ 50 | –
9 | CC(C)C(=O)Nc1ccc(N(C(=O)Cn2nnc3ccccc32)C(C(=O)NCc2ccccc2)c2ccncc2)cc1 (centres unmarked) [Compound 16, N-(4-(2-(1H-benzo[d][1,2,3]triazol-1-yl)-N-(2-(benzylamino)-2-oxo-1-(pyridin-4-yl)ethyl)acetamido)phenyl)isobutyramide] | 0.52 | ≤ 50 | –
10 | CC(C)(C)NC(=O)C(c1ccsc1)N(C(=O)Cc1csc2ccccc12)c1ccc(NC(=O)C2CC2)cc1 (centres unmarked) [Compound 24, N-(4-(2-(benzo[b]thiophen-3-yl)-N-(2-(tert-butylamino)-2-oxo-1-(thiophen-3-yl)ethyl)acetamido)phenyl)cyclopropanecarboxamide] | 0.40 | ≤ 50 | –
11 | COc1ccc(C(C(=O)NCc2ccccc2)N(C(=O)Cn2nnc3ccccc32)c2ccc(NC(=O)C(C)C)cc2)cc1 (centres unmarked) [Compound 13, N-(4-(2-(1H-benzo[d][1,2,3]triazol-1-yl)-N-(2-(benzylamino)-1-(4-methoxyphenyl)-2-oxoethyl)acetamido)phenyl)isobutyramide] | 0.43 | – | Score (performance metric score) [1]: 6.4; IC50 (HKU1-3CL^pro): 2500 ± 400 nM; IC50 (HKU5-3CL^pro): 1300 ± 200 nM
12 | CC(C)C(=O)Nc1ccc(N(C(=O)Cn2nnc3ccccc32)C(C(=O)NCc2ccccc2)c2ccc(Cl)c(F)c2)cc1 (centres unmarked) [Compound 55, N-(4-(2-(1H-benzo[d][1,2,3]triazol-1-yl)-N-(2-(benzylamino)-1-(4-chloro-3-fluorophenyl)-2-oxoethyl)acetamido)phenyl)isobutyramide] | 0.50 | – | Score (performance metric score) [1]: 9.8; IC50 (SARS-3CL^pro): 800 ± 100 nM
13 | Cc1cc(N(C(=O)c2c[nH]cn2)C(C(=O)NC(C)(C)C)c2cccnc2)ccc1Cl (centres unmarked) [Compound 70, N-(2-(tert-butylamino)-2-oxo-1-(pyridin-3-yl)ethyl)-N-(4-chloro-3-methylphenyl)-1H-imidazole-4-carboxamide] | 0.33 | – | –
14 | CC(C)(C)NC(=O)C(c1ccsc1)N(C(=O)Cc1coc2ccccc12)c1ccc(NC(=O)C2CC2)cc1 (centres unmarked) [Compound 25, N-(4-(2-(benzofuran-3-yl)-N-(2-(tert-butylamino)-2-oxo-1-(thiophen-3-yl)ethyl)acetamido)phenyl)cyclopropanecarboxamide] | 0.39 | ≤ 50 | –
15 | CC(C)C(=O)Nc1ccc(N(C(=O)Cn2nnc3ccccc32)C(C(=O)NCc2ccccc2)c2ccc(OCCCN(C)C)cc2)cc1 (centres unmarked) [Compound 54, N-(4-(2-(1H-benzo[d][1,2,3]triazol-1-yl)-N-(2-(benzylamino)-1-(4-(3-(dimethylamino)propoxy)phenyl)-2-oxoethyl)acetamido)phenyl)isobutyramide] | 0.59 | – | Score (performance metric score) [1]: 19.8; IC50 (HKU1-3CL^pro): 20000 ± 2900 nM; IC50 (SARS-3CL^pro): 27300 ± 4600 nM
16 | Cc1cccc2c(CC(=O)N(c3ccc(NC(=O)C(C)C)cc3)C(C(=O)NCc3ccccc3)c3cccc(F)c3)c[nH]c12 (centres unmarked) [Compound 57, N-(4-(N-(2-(benzylamino)-1-(3-fluorophenyl)-2-oxoethyl)-2-(7-methyl-1H-indol-3-yl)acetamido)phenyl)isobutyramide] | 0.38 | ≤ 50 | –
17 | CC(C)C(=O)Nc1ccc(N(C(=O)C2CCN(C(=O)OC(C)(C)C)CC2)C(C(=O)NCc2ccccc2)c2cccc(F)c2)cc1 (centres unmarked) [Compound 56, tert-butyl 4-((2-(benzylamino)-1-(3-fluorophenyl)-2-oxoethyl)(4-isobutyramidophenyl)carbamoyl) piperidine-1-carboxylate] | 0.34 | – | –
18 | CC(C)C(=O)Nc1ccc(N(C(=O)Cn2nnc3ccccc32)C(C(=O)NCc2ccccc2)c2ccc(N(C)C)cc2)cc1 (centres unmarked) [Compound 52, N-(4-(2-(1H-benzo[d][1,2,3]triazol-1-yl)-N-(2-(benzylamino)-1-(4-(dimethylamino)phenyl)-2-oxoethyl)acetamido)phenyl)isobutyramide] | 0.42 | ≤ 50 | –
19 | Cc1cccc2c(CC(=O)N(c3ccc(NC(=O)C4CC4)cc3)C(C(=O)NC(C)(C)C)c3ccsc3)c[nH]c12 (centres unmarked) [Compound 61, N-(4-(N-(2-(tert-butylamino)-2-oxo-1-(thiophen-3-yl)ethyl)-2-(7-methyl-1H-indol-3-yl)acetamido)phenyl)cyclopropanecarboxamide] | 0.43 | ≤ 50 | –
20 | CC(C)C(=O)Nc1ccc(N(C(=O)Cn2nnc3ccccc32)C(C(=O)NCc2ccccc2)c2ccc(Cl)cc2)cc1 (centres unmarked) [Compound 12, N-(4-(2-(1H-benzo[d][1,2,3]triazol-1-yl)-N-(2-(benzylamino)-1-(4-chlorophenyl)-2-oxoethyl)acetamido)phenyl)isobutyramide] | 0.37 | – | –
21 | Cc1nccn1CCC(=O)N(c1ccc(NC(=O)C2CC2)cc1)C(C(=O)NC(C)(C)C)c1ccsc1 (centres unmarked) [Compound 63, N-(4-(N-(2-(tert-butylamino)-2-oxo-1-(thiophen-3-yl)ethyl)-3-(2-methyl-1H-imidazol-1-yl)propanamido)phenyl)cyclopropanecarboxamide] | 0.44 | ≤ 50 | –
22 | Cc1nccn1CCC(=O)N(c1ccc(NC(=O)C(C)C)cc1)C(C(=O)NCc1ccccc1)c1cccc(F)c1 (centres unmarked) [Compound 59, N-(2-(benzylamino)-1-(3-fluorophenyl)-2-oxoethyl)-N-(4-isobutyramidophenyl)-3-(2-methyl-1H-imidazol-1-yl)propanamide] | 0.44 | – | –
23 | CC(C)C(=O)Nc1ccc(N(C(=O)Cn2nnc3ccccc32)C(C(=O)NCc2ccccc2)c2cccc(Cl)c2)cc1 (centres unmarked) [Compound 11, N-(4-(2-(1H-benzo[d][1,2,3]triazol-1-yl)-N-(2-(benzylamino)-1-(3-chlorophenyl)-2-oxoethyl)acetamido)phenyl)isobutyramide] | – | ≤ 50 | –
24 | CC(C)C(=O)Nc1ccc(N(C(=O)Cn2nnc3ccccc32)C(C(=O)NCc2ccccc2)c2cccnc2)cc1 (centres unmarked) [Compound 15, N-(4-(2-(1H-benzo[d][1,2,3]triazol-1-yl)-N-(2-(benzylamino)-2-oxo-1-(pyridin-3-yl)ethyl)acetamido)phenyl)isobutyramide] | 0.48 | – | Score (performance metric score) [1]: 9.7; IC50 (SARS-3CL^pro): 10900 ± 1900 nM; IC50 (HKU4-3CL^pro): 4000 ± 400 nM; IC50 (HKU5-3CL^pro): 9600 ± 1200 nM
